In patent publication US20060058359A1, “Compounds useful as pesticides” (priority 2002, published 2006):

Legend:
[1] = system: Cat Flea (Cntenocephalides felis); test: Testing with Cat Flea (treated media assay); format: in vivo; settings: 0.1 μg/g rate in media, infested with eggs, adults counted after five weeks vs acetone only
Procedure: Media is prepared by mixing 1 part dried bovine blood, 4 parts ground dog food pellets, and 95 parts clean sand. Compounds are dissolved in acetone and further diluted in acetone to yield the required range of concentrations. The acetone solutions are applied to measured amounts of media in small dishes. Final concentrations are expressed as micrograms of compound per gram of media. After the acetone has dried, the treated media is dispensed into small glass vials and infested with 5 to 10 cat flea (Cntenocephalides felis) eggs. The vials are loosely capped and held under controlled conditions for five weeks. Activity is assessed based on the average number of adult cat fleas present in the treated vials compared to the average number of adult cat fleas in the media treated with acetone only.

[2] = system: Cotton Aphid (Aphis gossypii); test: Testing with Cotton Aphid (squash cotyledon foliar spray assay); format: in vivo; settings: foliar spray on squash, 3 days after application
Text: Yellow crookneck squash, Cucurbita pepo, is planted in 3 inch pots and placed in a greenhouse. Plants are watered regularly for 5 to 7 days until they reach the first emergent leaf stage. Plants are then trimmed to a single cotyledon. The squash assay consists of four squash plants per treatment with each plant cotyledon considered a replicate. Four additional plants are used as a control treatment (receiving solvent blank application only). Twenty-four hours prior to application, a leaf section of heavily infested squash plant from the aphid colony is placed onto each cotyledon, allowing a mixed population of A. gossypii nymphs and adults to migrate and infest the test plants. The pre-infested squash cotyledons are sprayed on both the upper and lower surfaces using an airbrush sprayer set at 2 psi. Formulation is an aqueous solution containing 5% solvent and 0.025% Tween 20 surfactant to yield concentrations of 50 ppm and 5 ppm of the test compound. Plants are sprayed to runoff. Tests are held in ambient laboratory temperatures for three days. At 3 days after application (DM) the number of live aphids are counted with the aid of a dissecting microscope. The number of live aphids in the treatment is compared to the number of live aphids in the solvent blank-treated controls and percent mortality is calculated.

SMILES	control of cat fleas [1] [%]	percent mortality ([2]; 5 parts per million) [%]	percent mortality ([2]; 50 parts per million) [%]
C/N=C(/C(=CN(C)C)[N+](=O)[O-])N(C)Cc1ccc(Cl)nc1 [Compound One]	90	100	100
C/N=C(/C(=CNc1ccccc1)[N+](=O)[O-])N(C)Cc1ccc(Cl)nc1 [Compound Three]	38	100	100
